The values below come from PMC3848336, “Aurora Isoform Selectivity: Design and Synthesis of Imidazo[4,5-b]pyridine Derivatives as Highly Selective Inhibitors of Aurora-A Kinase in Cells” (Journal of Medicinal Chemistry, 2013).

Assay in all cases: Kinase selectivity profiling
Common to all, as to assay type: biochemical

Experiment [1] deals with EPH-B4 (Homo sapiens, UniProt P54760). The settings on record: 110-kinase panel, read-out: % activity remaining, EPH2B4. An excerpt:
(§1) Compound 28c was profiled against a panel of 110 kinases at the International Centre for Protein Kinase Profiling, Division of Signal Transduction Therapy, University of Dundee. Compound 40f was profiled against a panel of 50 kinases (MRC-PPU Express Screen) also at the International Centre for Protein Kinase Profiling.

In experiment [2] the target is PAK5 (Homo sapiens, UniProt Q9P286). Conditions: 110-kinase panel.
Description: as §1

The target of experiment [3] is MARK2 (Homo sapiens, UniProt Q7KZI7). The settings on record: 110-kinase panel.
Description: as §1

Experiment [4] addresses PAK2 (Homo sapiens, UniProt Q13177). Conditions: 110-kinase panel.
Description: as §1

Experiment [5] addresses MLK1 (Homo sapiens, UniProt P80192). The settings on record: 110-kinase panel.
Description: as §1

Experiment [6] addresses SmMLCK (Homo sapiens, UniProt Q15746).
Description: as §1

In experiment [7] the target is PHK (Homo sapiens, UniProt Q16816). Conditions: 110-kinase panel.
Description: as §1

Experiment [8] deals with IRR (Homo sapiens, UniProt P14616). Conditions: 110-kinase panel.
Description: as §1

Experiment [9] has as its target DYRK2 (Homo sapiens, UniProt Q92630). The settings on record: 110-kinase panel.
Description: as §1

Experiment [10] has as its target DAPK1 (Homo sapiens, UniProt P53355). The settings on record: 110-kinase panel.
Description: as §1

Experiment [11] addresses BTK (Homo sapiens, UniProt Q06187).
Description: as §1

The target of experiment [12] is BRSK2 (Homo sapiens, UniProt Q8IWQ3). The settings on record: 110-kinase panel.
Description: as §1

In experiment [13] the target is p38b MAPK (Homo sapiens, UniProt Q15759). The settings on record: 110-kinase panel.
p38b MAPK, sequence (Q15759 whole entry): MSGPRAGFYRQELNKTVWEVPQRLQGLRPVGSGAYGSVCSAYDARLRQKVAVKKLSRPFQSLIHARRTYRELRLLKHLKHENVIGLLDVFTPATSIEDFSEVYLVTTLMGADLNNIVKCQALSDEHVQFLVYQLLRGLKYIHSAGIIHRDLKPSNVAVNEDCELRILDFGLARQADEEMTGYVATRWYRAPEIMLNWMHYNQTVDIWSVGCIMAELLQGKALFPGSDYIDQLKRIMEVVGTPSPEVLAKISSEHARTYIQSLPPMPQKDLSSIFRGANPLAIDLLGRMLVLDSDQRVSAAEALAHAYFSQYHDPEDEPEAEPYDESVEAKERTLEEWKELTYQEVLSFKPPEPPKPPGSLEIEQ
Description: as §1

The target of experiment [14] is MKK6 (Homo sapiens, UniProt P52564). The settings on record: 110-kinase panel.
Description: as §1

The target of experiment [15] is JNK3 (Homo sapiens, UniProt P53779). The settings on record: 110-kinase panel.
Description: as §1

The target of experiment [16] is MST4 (Homo sapiens, UniProt Q9P289). The settings on record: 110-kinase panel.
Description: as §1

In experiment [17] the target is MELK (Homo sapiens, UniProt Q14680). Conditions: 110-kinase panel.
Description: as §1

Experiment [18] deals with EPH-B1 (Homo sapiens, UniProt P54762). The settings on record: 110-kinase panel, read-out: % activity remaining, EPH2B1.
Description: as §1

Experiment [19] addresses LKB1 (Homo sapiens, UniProt Q15831).
Description: as §1

Experiment [20] concerns the target ERK2 (Homo sapiens, UniProt P28482). Conditions: 110-kinase panel.
Description: as §1

Experiment [21] addresses PRAK (Homo sapiens, UniProt Q8IW41). Conditions: 110-kinase panel.
Description: as §1

The target of experiment [22] is MNK1 (Homo sapiens, UniProt Q9BUB5). The settings on record: 110-kinase panel.
Description: as §1

For experiment [23], the target named is MAPKAP-K2 (Homo sapiens, UniProt P49137). Conditions: 110-kinase panel, read-out: % activity remaining, MAPKAP2K2.
Description: as §1

The target in experiment [24] is MINK1 (Homo sapiens, UniProt Q8N4C8). Conditions: 110-kinase panel.
Description: as §1

Experiment [25] concerns the target CSK (Homo sapiens, UniProt P41240). Conditions: 110-kinase panel.
Description: as §1

For experiment [26], the target named is IGF-1R (Homo sapiens, UniProt P08069). Conditions: read-out: % activity remaining, IGF21R.
IGF-1R, sequence (P08069 31-1367): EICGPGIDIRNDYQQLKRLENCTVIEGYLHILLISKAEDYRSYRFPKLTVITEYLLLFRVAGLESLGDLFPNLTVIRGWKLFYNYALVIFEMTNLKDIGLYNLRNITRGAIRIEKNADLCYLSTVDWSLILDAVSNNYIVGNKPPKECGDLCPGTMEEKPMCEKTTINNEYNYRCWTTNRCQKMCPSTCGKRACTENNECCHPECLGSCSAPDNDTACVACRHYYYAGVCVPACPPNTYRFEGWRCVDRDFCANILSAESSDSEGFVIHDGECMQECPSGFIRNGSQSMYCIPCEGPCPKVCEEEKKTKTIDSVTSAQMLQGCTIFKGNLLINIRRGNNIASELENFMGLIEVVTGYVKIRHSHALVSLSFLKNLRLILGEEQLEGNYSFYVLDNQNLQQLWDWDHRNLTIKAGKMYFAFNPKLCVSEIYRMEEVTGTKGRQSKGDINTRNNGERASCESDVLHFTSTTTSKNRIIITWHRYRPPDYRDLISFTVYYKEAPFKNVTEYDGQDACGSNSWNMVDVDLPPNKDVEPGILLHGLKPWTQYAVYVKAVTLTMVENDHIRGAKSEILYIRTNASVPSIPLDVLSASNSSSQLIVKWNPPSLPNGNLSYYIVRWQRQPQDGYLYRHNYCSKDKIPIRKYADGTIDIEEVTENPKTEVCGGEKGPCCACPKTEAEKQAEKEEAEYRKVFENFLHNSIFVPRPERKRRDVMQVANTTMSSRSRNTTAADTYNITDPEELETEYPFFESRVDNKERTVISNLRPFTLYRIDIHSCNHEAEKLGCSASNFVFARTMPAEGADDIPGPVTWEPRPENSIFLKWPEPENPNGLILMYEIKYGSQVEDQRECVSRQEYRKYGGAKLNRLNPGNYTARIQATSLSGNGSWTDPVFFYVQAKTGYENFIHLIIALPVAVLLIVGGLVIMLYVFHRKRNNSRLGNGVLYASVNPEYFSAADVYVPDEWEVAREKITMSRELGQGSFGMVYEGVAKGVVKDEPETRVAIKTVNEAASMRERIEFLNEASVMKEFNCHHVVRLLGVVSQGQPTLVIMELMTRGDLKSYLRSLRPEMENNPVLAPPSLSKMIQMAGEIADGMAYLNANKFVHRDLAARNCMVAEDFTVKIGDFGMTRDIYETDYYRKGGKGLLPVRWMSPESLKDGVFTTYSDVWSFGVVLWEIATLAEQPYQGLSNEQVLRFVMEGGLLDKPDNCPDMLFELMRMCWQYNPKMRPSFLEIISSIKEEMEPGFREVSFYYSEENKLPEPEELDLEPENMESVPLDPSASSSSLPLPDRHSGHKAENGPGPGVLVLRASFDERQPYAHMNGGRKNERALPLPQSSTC
Description: as §1

The target of experiment [27] is PAK6 (Homo sapiens, UniProt Q9NQU5). Conditions: 110-kinase panel.
Description: as §1

Experiment [28] has as its target PIM2 (Homo sapiens, UniProt Q9P1W9). Conditions: 110-kinase panel.
Description: as §1

Experiment [29] deals with NEK2a (Homo sapiens, UniProt P51955). Conditions: 110-kinase panel.
Description: as §1

In experiment [30] the target is HIPK3 (Homo sapiens, UniProt Q9H422). The settings on record: 110-kinase panel.
Description: as §1

Experiment [31] addresses JNK2 (Homo sapiens, UniProt P45984). The settings on record: 110-kinase panel.
Description: as §1

Experiment [32] deals with MARK4 (Homo sapiens, UniProt Q96L34). Conditions: 110-kinase panel.
Description: as §1

The target of experiment [33] is GCK (Homo sapiens, UniProt Q12851). The settings on record: 110-kinase panel.
Description: as §1

Experiment [34] deals with ERK1 (Homo sapiens, UniProt P27361). Conditions: 110-kinase panel.
Description: as §1

In experiment [35] the target is ASK1 (Homo sapiens, UniProt Q99683). The settings on record: 110-kinase panel.
Description: as §1

Experiment [36] relates to AMPK. The settings on record: 1 µM; 110-kinase panel.
Description: as §1

In experiment [37] the target is PKBb (Homo sapiens, UniProt P31751). The settings on record: 110-kinase panel.
Description: as §1

Experiment [38] concerns the target SYK (Homo sapiens, UniProt P43405).
Description: as §1

In experiment [39] the target is p38d MAPK (Homo sapiens, UniProt O15264). The settings on record: 110-kinase panel.
Description: as §1

For experiment [40], the target named is IKKb (Homo sapiens, UniProt O14920). Conditions: 110-kinase panel.
Description: as §1

The target of experiment [41] is BRSK1 (Homo sapiens, UniProt Q8TDC3). The settings on record: 110-kinase panel.
Description: as §1

Experiment [42] deals with Aurora B (Homo sapiens, UniProt Q96GD4).
Aurora B, sequence (Q96GD4 whole entry): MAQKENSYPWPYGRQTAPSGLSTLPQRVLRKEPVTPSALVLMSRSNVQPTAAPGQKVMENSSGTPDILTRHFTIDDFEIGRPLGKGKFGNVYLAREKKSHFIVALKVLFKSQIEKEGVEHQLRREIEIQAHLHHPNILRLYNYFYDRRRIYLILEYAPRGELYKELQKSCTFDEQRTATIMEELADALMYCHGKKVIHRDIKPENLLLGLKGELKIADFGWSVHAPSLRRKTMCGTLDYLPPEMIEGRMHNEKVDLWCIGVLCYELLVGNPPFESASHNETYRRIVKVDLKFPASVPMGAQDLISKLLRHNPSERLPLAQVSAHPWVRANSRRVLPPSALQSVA
[43] abbreviates: 50-kinase panel (MRC-PPU Express Screen).

Each structure is given as a SMILES string. Read-outs that look alike come from different tables or passages of the source.

BTK, sequence (Q06187 whole entry): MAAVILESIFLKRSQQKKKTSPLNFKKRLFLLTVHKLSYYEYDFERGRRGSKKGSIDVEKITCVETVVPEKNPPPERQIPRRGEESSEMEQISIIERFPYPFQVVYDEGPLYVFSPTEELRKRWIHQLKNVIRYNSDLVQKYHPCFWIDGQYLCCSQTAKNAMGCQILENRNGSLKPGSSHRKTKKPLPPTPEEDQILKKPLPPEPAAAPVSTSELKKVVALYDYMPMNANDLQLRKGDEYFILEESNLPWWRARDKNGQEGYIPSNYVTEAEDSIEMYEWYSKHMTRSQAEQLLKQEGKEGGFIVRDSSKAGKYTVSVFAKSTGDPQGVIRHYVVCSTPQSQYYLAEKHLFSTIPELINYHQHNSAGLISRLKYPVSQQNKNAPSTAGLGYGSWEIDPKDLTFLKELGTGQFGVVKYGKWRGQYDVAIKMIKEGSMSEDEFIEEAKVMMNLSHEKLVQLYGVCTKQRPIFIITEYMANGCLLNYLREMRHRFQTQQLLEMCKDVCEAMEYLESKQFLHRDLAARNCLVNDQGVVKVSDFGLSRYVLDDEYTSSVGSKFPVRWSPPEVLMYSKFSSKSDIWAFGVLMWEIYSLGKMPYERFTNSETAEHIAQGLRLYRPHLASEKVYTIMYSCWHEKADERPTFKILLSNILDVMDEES
SmMLCK, sequence (Q15746 923-1914): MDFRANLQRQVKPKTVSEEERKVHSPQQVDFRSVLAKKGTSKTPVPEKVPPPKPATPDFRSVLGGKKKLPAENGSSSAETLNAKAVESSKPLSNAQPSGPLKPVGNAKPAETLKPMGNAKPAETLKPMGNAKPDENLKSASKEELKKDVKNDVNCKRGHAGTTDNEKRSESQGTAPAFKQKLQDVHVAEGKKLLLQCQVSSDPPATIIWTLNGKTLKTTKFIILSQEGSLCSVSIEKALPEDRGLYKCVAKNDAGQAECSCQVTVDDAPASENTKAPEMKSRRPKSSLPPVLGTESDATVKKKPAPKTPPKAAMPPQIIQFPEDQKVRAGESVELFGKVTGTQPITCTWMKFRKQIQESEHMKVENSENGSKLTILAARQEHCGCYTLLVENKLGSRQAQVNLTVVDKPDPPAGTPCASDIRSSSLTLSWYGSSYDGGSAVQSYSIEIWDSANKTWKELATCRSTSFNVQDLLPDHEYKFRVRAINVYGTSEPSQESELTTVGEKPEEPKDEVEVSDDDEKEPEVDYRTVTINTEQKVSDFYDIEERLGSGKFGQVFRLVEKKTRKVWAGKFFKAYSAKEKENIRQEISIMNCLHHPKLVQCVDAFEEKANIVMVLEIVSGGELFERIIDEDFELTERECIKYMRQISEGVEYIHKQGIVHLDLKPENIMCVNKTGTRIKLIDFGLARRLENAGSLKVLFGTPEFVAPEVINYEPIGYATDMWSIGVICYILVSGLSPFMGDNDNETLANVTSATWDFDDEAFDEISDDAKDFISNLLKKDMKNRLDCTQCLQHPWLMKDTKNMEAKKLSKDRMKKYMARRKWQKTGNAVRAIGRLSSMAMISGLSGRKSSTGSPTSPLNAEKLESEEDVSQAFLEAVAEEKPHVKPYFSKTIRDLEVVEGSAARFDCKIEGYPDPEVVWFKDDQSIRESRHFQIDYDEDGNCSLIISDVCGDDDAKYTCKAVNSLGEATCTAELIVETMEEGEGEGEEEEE
LKB1, sequence (Q15831 whole entry): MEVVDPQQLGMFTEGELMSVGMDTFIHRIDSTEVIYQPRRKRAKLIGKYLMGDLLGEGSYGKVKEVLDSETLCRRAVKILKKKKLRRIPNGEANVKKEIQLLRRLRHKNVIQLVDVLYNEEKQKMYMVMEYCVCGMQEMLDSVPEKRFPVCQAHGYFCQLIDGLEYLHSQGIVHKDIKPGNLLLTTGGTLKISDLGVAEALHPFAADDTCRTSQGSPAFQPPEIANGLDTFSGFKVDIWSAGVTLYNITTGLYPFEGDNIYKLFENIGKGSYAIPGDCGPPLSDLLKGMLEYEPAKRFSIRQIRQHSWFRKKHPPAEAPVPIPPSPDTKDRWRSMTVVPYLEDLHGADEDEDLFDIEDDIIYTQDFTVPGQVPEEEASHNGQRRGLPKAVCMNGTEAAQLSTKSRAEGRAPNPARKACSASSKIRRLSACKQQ
LKB1, sequence (Q7RTN6 whole entry partner): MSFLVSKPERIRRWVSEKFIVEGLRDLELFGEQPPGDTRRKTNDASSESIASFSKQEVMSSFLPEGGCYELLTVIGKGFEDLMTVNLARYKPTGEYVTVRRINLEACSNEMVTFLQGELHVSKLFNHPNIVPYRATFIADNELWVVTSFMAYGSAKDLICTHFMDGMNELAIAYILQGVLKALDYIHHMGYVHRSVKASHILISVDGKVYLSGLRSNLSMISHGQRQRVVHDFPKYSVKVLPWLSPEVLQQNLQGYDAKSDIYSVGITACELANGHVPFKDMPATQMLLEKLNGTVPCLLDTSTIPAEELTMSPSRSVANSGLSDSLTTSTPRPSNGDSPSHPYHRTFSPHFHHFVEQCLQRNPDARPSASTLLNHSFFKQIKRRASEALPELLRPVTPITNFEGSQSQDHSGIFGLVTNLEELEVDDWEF
LKB1, sequence (Q9Y376 whole entry partner): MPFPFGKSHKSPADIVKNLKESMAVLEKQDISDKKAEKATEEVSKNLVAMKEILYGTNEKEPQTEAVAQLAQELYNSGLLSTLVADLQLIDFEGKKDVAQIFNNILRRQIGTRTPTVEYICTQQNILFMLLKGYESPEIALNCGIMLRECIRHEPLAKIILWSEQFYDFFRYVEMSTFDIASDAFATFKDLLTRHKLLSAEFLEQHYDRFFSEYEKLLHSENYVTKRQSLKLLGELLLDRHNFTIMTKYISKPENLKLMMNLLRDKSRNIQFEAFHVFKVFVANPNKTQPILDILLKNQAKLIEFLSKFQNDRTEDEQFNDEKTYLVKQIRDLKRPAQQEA

For `Cc1nn(C)cc1-c1nc2c(Oc3ccc(C(=O)Nc4ccccc4)cc3)c(Cl)cnc2[nH]1` [compound 28c, 4-((6-Chloro-2-(1,3-dimethyl-1H-pyrazol-4-yl)-3H-imidazo[4,5-b]pyridin-7-yl)oxy)-N-phenylbenzamide], the remaining activity – broadly, the signal under treatment as a percentage of the control signal – at 1 µM amounted to 102% in experiment [1]; 56% in experiment [2]; 104% in experiment [3]; 102% in [4]; 31% in experiment [5]; 91% in experiment [6] (110-kinase panel). In addition, the remaining activity at 1 µM in [7] is 101%; in experiment [8], 108%; in experiment [9], 87%; in experiment [10], 95%; in experiment [11] (110-kinase panel), 110%; in [12], 111%. For the same compound, the remaining activity at 1 µM in experiment [13] was determined as 89%; in experiment [14] it was 95%; in experiment [15], 87%; in experiment [16], 115%; in experiment [17] it was 79%; in experiment [18] it was 127%. The remaining activity at 1 µM in [19] (110-kinase panel) was determined as 97%; in experiment [20], 85%; in experiment [21] it was 103%; in experiment [22], 126%; in experiment [23], 91%; in experiment [24], 75%. In addition, the remaining activity at 1 µM came out at 76% in experiment [25]; 98% in experiment [26] (110-kinase panel); 101% in [27]; 117% in experiment [28]; 96% in experiment [29]; 96% in experiment [30]. Besides, the remaining activity at 1 µM in [31] worked out at 90%; in experiment [32], 85%; in [33], 98%; in experiment [34], 172%; in experiment [35], 119%; in experiment [37] it was 78%. The remaining activity at 1 µM in experiment [38] (110-kinase panel) was found to be 117%; in experiment [39], 102%; in experiment [40] it was 99%; in experiment [41], 109%; in experiment [42] (110-kinase panel), 25%. The “% activity remaining, AMPK” value in [36] is 83%.
For the compound `Cc1nn(C)cc1-c1nc2c(Oc3ccc(C(=O)NC4CCC4)cc3)c(Cl)cnc2[nH]1` [compound 40f, 4-((6-Chloro-2-(1,3-dimethyl-1H-pyrazol-4-yl)-3H-imidazo[4,5-b]pyridin-7-yl)oxy)-N-cyclobutylbenzamide], the remaining activity at 1 µM in experiment [6] (setting [43]) worked out at 87%; in [11] (setting [43]) it was 101%; in experiment [19] (setting [43]) it was 108%; in [26] (setting [43]) it was 78%; in [38] (setting [43]) it was 84%; in experiment [42] (setting [43]), 66%.
